{"source": "patent US20220184026A1", "about": "“COMPOSITIONS OF FULVIC ACID AND CANNABINOID AND USES THEREOF” (Omni Bioceutical Innovations, Inc., priority 2019, published 2022)", "origin": "cited, not measured here", "tested_on": "chronic wounds", "parameters": "key: N.S. = not statistically significant", "note": "Read-outs that look alike come from different tables or passages of the source.", "data": [{"substance": "interleukin-1B [IL-1B]", "values": [{"measurement": "Results", "setting": "Robson et al., pressure wounds (n=25), 0.01, 0.1, and 1 μg/cm^2 daily", "result": "N.S."}]}, {"substance": "basic fibroblast growth factor [bFGF]", "values": [{"measurement": "Results", "setting": "Richard et al., diabetic wounds (n=17), 0.25 to 0.75 μg/cm^2 daily", "result": "N.S."}, {"measurement": "Results", "setting": "Robson et al., pressure wounds (n=50), 1, 5, and 10 μg/cm^2", "result": "N.S."}]}, {"substance": "granulocyte-macrophage colony-stimulating factor [GM-CSF]", "values": [{"measurement": "Results", "setting": "da Costa et al., venous + arterial wounds (n=25), 400 μg injected once around the wound", "result": "N.S."}]}, {"substance": "human growth hormone [HGH]", "values": [{"measurement": "Results", "setting": "Rasmussen et al., venous wounds (n=37), 1 IU/cm^2 per week", "result": "N.S."}]}, {"substance": "epidermal growth factor (NSDSECPLSHDGYCLHDGVCMYIEALDKYACNCVVGYIGERCQYRDLKWWELR; not fully specified; Epidermal growth factor; UniProt P01133 971-1023, looked up) [EGF]", "values": [{"measurement": "Results", "setting": "Falanga et al., venous wounds (n=44), 10 μg/mL twice per day", "result": "N.S."}]}]}
